From PMC3764026, “Adaptive Evolution of Escherichia coli to an α-Peptide/β-Peptoid Peptidomimetic Induces Stable Resistance” (PLoS ONE, 2013) come the findings set out here.

Each structure is given as a SMILES string. In brackets after ≈: the same amount, converted by molar mass. Read-outs that look alike come from different tables or passages of the source.

The test system of assay [1] is peptidomimetic-adapted E. coli isolates. To be noted: for Potentiation (ability of plasma to interact synergistically with peptidomimetic 1): MHB vs MHB +25% plasma; for MIC in MHB +25% plasma: MHB with 25% human blood plasma (sodium citrate). As to the method: (§1) MIC was determined by using the micro-dilution method according to guidelines of the Clinical and Laboratory Standards Institute. Peptidomimetic 1 and erythromycin 1∶2 serial dilutions were prepared from 1024 µg/mL stock solutions to give a final range of 512-0.5 µg/mL in the wells. Ampicillin 1∶2 serial dilutions were prepared from a 256 µg/mL stock solution to give a final range of 128-0.13 µg/mL in the wells. Polymyxin B and gentamicin 1∶2 serial dilutions were prepared from a 64 µg/mL stock solution to give a final range of 32-0.03 µg/mL in the wells.
(§2) The population lineages were tested for their susceptibility towards peptidomimetic 1, polymyxin B, gentamicin and ampicillin. Single-culture isolates selected from these populations were additionally tested against peptidomimetic 1, polymyxin B, erythromycin and the five reference AMPs. To estimate the level of cross-resistance to closely related peptidomimetics, MIC determinations were performed for peptidomimetics 2 and 3 (Figure 1) towards selected isolates. The bacterial suspensions were grown overnight in MHB at 37°C for determination of the population MIC, or individual isolates were grown overnight on non-selective BHI agar at 37°C. […] In all experiments, bacterial cells were suspended in 0.9% saline to give a turbidity of 0.13 at OD546 (approximately 1×10^8 CFU/mL) and diluted in MHB pH 7.4 to a final concentration of 5×10^5 CFU/mL in each well. Polypropylene plates (Nunc 442587) were used to minimize peptide binding, and the incubation time was 18–20 hours at 37°C. […] MIC was found in a minimum of two technical (population MIC) or biological (isolate MIC) replicates as the lowest concentration of the AMP or antibiotic where no visible growth was observed.
(§3) Four isolates, i.e. 2-7, 4-4, 5-6 and 7-3, a representative isolate from four different lineages, were revived from freeze storage. The four isolates were grown in 25–50% blood plasma and in 25–50% heat-inactivated plasma as previously described. Blood plasma was obtained from two different blood donors using sodium citrate as anticoagulant and experiments were performed on at least two independent days. Both donors were fully informed about the study and purpose and a written consent has been received. […] For this the 1∶2 serial dilutions were made in MHB with 50% blood plasma added to give a final concentration of 25% plasma in the wells.

Assay [2] concerns E. coli ATCC 25922. The conditions noted are these: wild-type E. coli ATCC 25922. How it is done: as §1, §2, §3
Assay [3] concerns Escherichia coli ATCC 25922. Briefly: Continuous selection experiment. The format is cell-based. How it is done:
Continuous selection of resistance was performed for peptidomimetic 1 (Figure 1) and for the clinically relevant natural antimicrobial peptide, polymyxin B. A bacterial suspension of a single colony of E. coli ATCC 25922 was re-inoculated (10 µl) five times in unsupplemented MHB (990 µl). It was then re-inoculated in MHB supplemented with peptidomimetic 1 (ten lineages) or polymyxin B (ten lineages), and after ten re-inoculations at constant peptidomimetic or polymyxin B concentration, the concentrations were doubled. […] Four lineages grown in MHB with MilliQ water were included as control. Re-inoculations were performed twice a day, but were reduced to once a day when growth was slower as assessed by turbidity of the cultures. The total number of passages (supplemented with peptidomimetic/AMP) was 77 times equivalent to approx. 500 generations. For each increase in concentration the lineages were preserved as freezing stocks. Ten colony isolates were randomly selected from each lineage population at 32×MIC and preserved as freezing stocks.

The test system of assay [4] is Escherichia coli ATCC 25922. The class given is cell-based. The conditions noted are these: wild-type E. coli ATCC 25922; MHB pH 7.4, 5×10^5 CFU/mL, 37°C, 18–20 h. As to the method:
All experiments were performed with Escherichia coli ATCC 25922. Stock cultures of the wild-type strain and lineage isolates were stored at –80°C in 4% (w/v) glycerol, 0.5% (w/v) glucose, 2% (w/v) skimmed milk powder and 3% (w/v) tryptone soy powder. Lineage populations were frozen at –80°C in 50% (w/v) glycerol. All experiments were performed at 37°C. Experiments were carried out in cation-adjusted Mueller Hinton II broth (MHB) (Becton Dickinson 212322) adjusted to pH 7.4 or in 1% (w/v) peptone (Becton Dickinson 211677) for MIC determination of natural AMPs. Brain Heart Infusion (BHI) (CM1135) with agar (VWR 20768.292) 1.5% as gelling agent was used throughout for colony plating.
MIC was determined by using the micro-dilution method according to guidelines of the Clinical and Laboratory Standards Institute. Peptidomimetic 1 and erythromycin 1∶2 serial dilutions were prepared from 1024 µg/mL stock solutions to give a final range of 512-0.5 µg/mL in the wells. Ampicillin 1∶2 serial dilutions were prepared from a 256 µg/mL stock solution to give a final range of 128-0.13 µg/mL in the wells. Polymyxin B and gentamicin 1∶2 serial dilutions were prepared from a 64 µg/mL stock solution to give a final range of 32-0.03 µg/mL in the wells. Also, 1∶2 serial dilutions of the AMPs KR-12, IsCTp, melittin and PEP-1-K were prepared from 64 µg/mL stock solutions to give a final range of 32-0.03 µg/mL in the wells; however this was performed in 1% peptone instead of in MHB since activity was drastically diminished in the latter (not shown).
The population lineages were tested for their susceptibility towards peptidomimetic 1, polymyxin B, gentamicin and ampicillin. Single-culture isolates selected from these populations were additionally tested against peptidomimetic 1, polymyxin B, erythromycin and the five reference AMPs. To estimate the level of cross-resistance to closely related peptidomimetics, MIC determinations were performed for peptidomimetics 2 and 3 (Figure 1) towards selected isolates. […]

On to `CC(=O)N[C@@H](CCCCNC(=N)N)C(=O)N(CCC(=O)N[C@@H](CCCCNC(=N)N)C(=O)N(CCC(=O)N[C@@H](CCCCNC(=N)N)C(=O)N(CCC(=O)N[C@@H](CCCCNC(=N)N)C(=O)N(CCC(=O)N[C@@H](CCCCNC(=N)N)C(=O)N(CCC(=O)N[C@@H](CCCCNC(=N)N)C(=O)N(CCC(N)=O)[C@@H](C)c1ccccc1)[C@@H](C)c1ccccc1)[C@@H](C)c1ccccc1)[C@@H](C)c1ccccc1)[C@@H](C)c1ccccc1)[C@@H](C)c1ccccc1` [peptidomimetic 1], for which the “Potentiation (ability of plasma to interact synergistically with peptidomimetic 1)” value in assay [1] (isolate 2–7) is reported as “Strong”; in assay [1] (isolate 4–4) it was “Weak”; in assay [1] (isolate 5–6), “Weak”; in assay [1] (isolate 7–3) it was “Strong”; in assay [2] (MHB vs MHB +25% plasma), “Weak”. The “MIC in MHB +25% plasma” value in assay [1] (isolate 2–7) was 0.25 to 2 µg/mL; in assay [1] (isolate 4–4), 1 to 4 µg/mL; in assay [1] (isolate 5–6), 4 to 8 µg/mL; in assay [1] (isolate 7–3) it was 1 to 2 µg/mL; in assay [2] (MHB with 25% human blood plasma (sodium citrate)) it was 2 µg/mL (≈ 0.938 µM). The “lineages that eventually grew at 32×wt MIC” value in assay [3] (ten lineages per agent, from 1/16×wt MIC, doubled stepwise, 77 inoculations, approx. 500 generations, 32×wt MIC = 256 µg/mL peptidomimetic 1, 32 µg/mL polymyxin B) was “All ten”. The “growth of unexposed control lineages at 4×wt MIC” value in assay [3] (two controls per agent, 32 µg/mL peptidomimetic 1 or 4 µg/mL polymyxin B) is “failed to grow”. The “wt MIC” value in assay [4] stood at 8 µg/mL.
